Key:
Integrin alpha-4/beta-1 [1] = target: T1, Integrin alpha-4/beta-1 (Homo sapiens, UniProt P05556+P13612); assay: Inhibitory binding concentration determined against VCAM/VLA-4 in Ramos; type: protein-complex assay
Integrin alpha-4/beta-1 [2] = target: T1, Integrin alpha-4/beta-1; assay: Inhibitory binding concentration determined against VCAM/VLA-4 in ELISA; type: protein-complex assay
Integrin alpha-4/beta-1 [3] = target: T1, Integrin alpha-4/beta-1; assay: Inhibition of Very late antigen 4/vascular cell adhesion molecule 1 interaction in ELISA; type: protein-complex assay
Integrin alpha-4/beta-1 [4] = target: T1, Integrin alpha-4/beta-1; assay: Inhibition of Very late antigen 4 (VLA-4) of Ramos cell adhesion to vascular cell adhesion molecule 1 (VCAM-1); type: cell-based

T1 sequence (P05556 whole entry): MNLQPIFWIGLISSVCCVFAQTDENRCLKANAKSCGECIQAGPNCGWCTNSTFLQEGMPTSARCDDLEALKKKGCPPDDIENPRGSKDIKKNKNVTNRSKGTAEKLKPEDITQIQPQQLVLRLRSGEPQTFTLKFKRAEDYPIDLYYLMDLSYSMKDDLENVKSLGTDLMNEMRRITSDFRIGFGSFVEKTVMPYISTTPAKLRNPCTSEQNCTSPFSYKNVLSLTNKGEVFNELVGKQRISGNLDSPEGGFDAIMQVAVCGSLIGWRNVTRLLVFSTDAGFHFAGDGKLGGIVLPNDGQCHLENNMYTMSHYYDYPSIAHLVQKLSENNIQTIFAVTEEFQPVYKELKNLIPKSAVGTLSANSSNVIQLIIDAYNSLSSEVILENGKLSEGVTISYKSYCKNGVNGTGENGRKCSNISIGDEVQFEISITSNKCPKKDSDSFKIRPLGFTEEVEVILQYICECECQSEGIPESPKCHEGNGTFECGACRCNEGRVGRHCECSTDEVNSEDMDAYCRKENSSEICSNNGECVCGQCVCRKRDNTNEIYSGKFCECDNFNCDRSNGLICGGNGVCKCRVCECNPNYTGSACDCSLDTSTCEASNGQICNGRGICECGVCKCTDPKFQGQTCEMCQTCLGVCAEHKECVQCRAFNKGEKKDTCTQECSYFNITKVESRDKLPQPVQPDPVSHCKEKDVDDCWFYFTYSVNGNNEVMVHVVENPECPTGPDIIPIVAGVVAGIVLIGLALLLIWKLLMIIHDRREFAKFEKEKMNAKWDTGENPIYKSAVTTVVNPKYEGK
T1 sequence (P13612 whole entry): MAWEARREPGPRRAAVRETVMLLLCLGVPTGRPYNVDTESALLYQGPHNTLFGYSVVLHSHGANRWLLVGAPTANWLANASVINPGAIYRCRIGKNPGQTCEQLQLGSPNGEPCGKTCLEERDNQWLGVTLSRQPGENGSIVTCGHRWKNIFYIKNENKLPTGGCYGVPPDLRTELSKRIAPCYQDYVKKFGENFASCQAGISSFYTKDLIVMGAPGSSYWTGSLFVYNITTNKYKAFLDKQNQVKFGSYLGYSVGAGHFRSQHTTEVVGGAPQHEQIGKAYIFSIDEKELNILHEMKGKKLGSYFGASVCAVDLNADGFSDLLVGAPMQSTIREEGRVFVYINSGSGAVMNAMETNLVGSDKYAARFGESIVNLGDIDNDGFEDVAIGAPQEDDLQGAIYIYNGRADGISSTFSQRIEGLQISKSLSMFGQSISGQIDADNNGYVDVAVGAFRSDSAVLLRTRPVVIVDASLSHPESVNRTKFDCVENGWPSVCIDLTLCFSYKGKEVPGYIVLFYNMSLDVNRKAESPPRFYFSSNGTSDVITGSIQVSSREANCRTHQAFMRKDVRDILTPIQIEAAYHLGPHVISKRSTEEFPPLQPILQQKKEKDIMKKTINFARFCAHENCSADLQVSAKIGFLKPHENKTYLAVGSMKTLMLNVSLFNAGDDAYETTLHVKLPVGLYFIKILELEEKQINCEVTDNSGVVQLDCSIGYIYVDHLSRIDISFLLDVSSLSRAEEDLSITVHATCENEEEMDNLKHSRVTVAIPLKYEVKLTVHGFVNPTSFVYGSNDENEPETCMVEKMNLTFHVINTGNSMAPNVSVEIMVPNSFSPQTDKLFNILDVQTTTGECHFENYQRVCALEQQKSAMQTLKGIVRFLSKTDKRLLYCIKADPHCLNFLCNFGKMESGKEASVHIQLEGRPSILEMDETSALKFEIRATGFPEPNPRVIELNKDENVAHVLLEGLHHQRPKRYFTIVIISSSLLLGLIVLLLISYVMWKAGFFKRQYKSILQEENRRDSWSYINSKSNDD

| IC50 (Integrin alpha-4/beta-1 [1]) | IC50 (Integrin alpha-4/beta-1 [2]) | IC50 (Integrin alpha-4/beta-1 [4]) | Structure (SMILES) | IC50 (Integrin alpha-4/beta-1 [3]) |
| --- | --- | --- | --- | --- |
| 142 nM | 1.64 nM | – | [N-]=[N+]=NCCCCC1(C(=O)N[C@@H](Cc2ccc(NC(=O)c3c(Cl)cccc3Cl)cc2)C(=O)O)CCCC1 | – |
| 914 nM | 5.8 nM | – | O=C(NCCC1(C(=O)N[C@@H](Cc2ccc(NC(=O)c3c(Cl)cccc3Cl)cc2)C(=O)O)CCCC1)Nc1ccccc1 | – |
| 37 nM | 0.6 nM | – | COc1ccc(CC2(C(=O)N[C@@H](Cc3ccc(NC(=O)c4c(Cl)cccc4Cl)cc3)C(=O)O)CCCC2)cc1 | – |
| – | – | – | CS(=O)(=O)CCC1(C(=O)N[C@@H](Cc2ccc(NC(=O)c3c(Cl)cccc3Cl)cc2)C(=O)O)CCCC1 | 0.8 nM |
| 134 nM | 1 nM | – | COCC1(C(=O)N[C@@H](Cc2ccc(NC(=O)c3c(Cl)cccc3Cl)cc2)C(=O)O)CCCC1 | – |
| – | – | 8 nM | CS(=O)(=O)CCCCC1(C(=O)N[C@@H](Cc2ccc(NC(=O)c3c(Cl)cccc3Cl)cc2)C(=O)O)CCCC1 | 0.15 nM |
| 350 nM | 7.8 nM | – | CC(=O)CCCC1(C(=O)N[C@@H](Cc2ccc(NC(=O)c3c(Cl)cccc3Cl)cc2)C(=O)O)CCCC1 | – |
| 100 nM | 0.4 nM | – | Cn1nnnc1-c1cccc(CC2(C(=O)N[C@@H](Cc3ccc(NC(=O)c4c(Cl)cccc4Cl)cc3)C(=O)O)CCCC2)c1 | – |
| 340 nM | 6.6 nM | – | O=C(Nc1ccc(C[C@H](NC(=O)C2(Cc3ccccc3)CCCC2)C(=O)O)cc1)c1c(Cl)cccc1Cl | – |
| – | 1.7 nM | – | O=C(Nc1ccc(C[C@H](NC(=O)C2(c3ccccc3)CCCC2)C(=O)O)cc1)c1c(Cl)cccc1Cl | – |
| 61 nM | 1.3 nM | – | Cn1nnnc1-c1ccc(CC2(C(=O)N[C@@H](Cc3ccc(NC(=O)c4c(Cl)cccc4Cl)cc3)C(=O)O)CCCCC2)cc1 | – |
| 11 nM | 0.1 nM | – | CNC(=O)NCCC1(C(=O)N[C@@H](Cc2ccc(NC(=O)c3c(Cl)cccc3Cl)cc2)C(=O)O)CCCC1 | – |
| – | – | 6 nM | CS(=O)(=O)CCCCC1(C(=O)N[C@@H](Cc2ccc(NC(=O)c3c(Cl)cccc3Cl)cc2)C(=O)O)CCC1 | 0.1 nM |
| 95 nM | 0.8 nM | – | COc1ccc(CC2(C(=O)N[C@@H](Cc3ccc(NC(=O)c4c(Cl)cccc4Cl)cc3)C(=O)O)CCCC2)cc1OC | – |
| – | – | – | CSCCCCC1(C(=O)N[C@@H](Cc2ccc(NC(=O)c3c(Cl)cccc3Cl)cc2)C(=O)O)CCCC1 | 1.1 nM |
| 17 nM | 0.61 nM | – | COCCC1(C(=O)N[C@@H](Cc2ccc(NC(=O)c3c(Cl)cccc3Cl)cc2)C(=O)O)CCC1 | – |
| 89 nM | 3.4 nM | – | CN(C)CCC1(C(=O)N[C@@H](Cc2ccc(NC(=O)c3c(Cl)cccc3Cl)cc2)C(=O)O)CCCC1 | – |
| 12 nM | – | – | COCCC1(C(=O)N[C@@H](Cc2ccc(NC(=O)c3c(Cl)cccc3Cl)cc2)C(=O)O)CCCC1 | – |
| – | – | 528 nM | CS(=O)(=O)CCCC1(C(=O)N[C@@H](Cc2ccc(NC(=O)c3c(Cl)cccc3Cl)cc2)C(=O)O)CCCC1 | 1.8 nM |
| – | – | – | C[S+]([O-])CCC1(C(=O)N[C@@H](Cc2ccc(NC(=O)c3c(Cl)cccc3Cl)cc2)C(=O)O)CCCC1 (some centres undefined) | 0.21 nM |

| Structure (SMILES) | IC50 (Integrin alpha-4/beta-1 [1]) | IC50 (Integrin alpha-4/beta-1 [2]) | IC50 (Integrin alpha-4/beta-1 [4]) | IC50 (Integrin alpha-4/beta-1 [3]) |
| --- | --- | --- | --- | --- |
| COCCCCC1(C(=O)N[C@@H](Cc2ccc(NC(=O)c3c(Cl)cccc3Cl)cc2)C(=O)O)CCCC1 | 29 nM | – | – | – |
| C=CCCC1(C(=O)N[C@@H](Cc2ccc(NC(=O)c3c(Cl)cccc3Cl)cc2)C(=O)O)CCCC1 | 64 nM | – | – | – |
| O=C(Nc1ccc(C[C@H](NC(=O)C2(Cc3ccccc3Cl)CCCC2)C(=O)O)cc1)c1c(Cl)cccc1Cl | 350 nM | – | – | – |
| [N-]=[N+]=NCCC1(C(=O)N[C@@H](Cc2ccc(NC(=O)c3c(Cl)cccc3Cl)cc2)C(=O)O)CCCC1 | – | 0.53 nM | – | – |
| COc1cccc(CC2(C(=O)N[C@@H](Cc3ccc(NC(=O)c4c(Cl)cccc4Cl)cc3)C(=O)O)CCCC2)c1 | 170 nM | – | – | – |
| NC(=O)NCCC1(C(=O)N[C@@H](Cc2ccc(NC(=O)c3c(Cl)cccc3Cl)cc2)C(=O)O)CCCC1 | – | 0.46 nM | – | – |
| N#CCCCCC1(C(=O)N[C@@H](Cc2ccc(NC(=O)c3c(Cl)cccc3Cl)cc2)C(=O)O)CCCC1 | – | 0.52 nM | – | – |
| N#CCC1(C(=O)N[C@@H](Cc2ccc(NC(=O)c3c(Cl)cccc3Cl)cc2)C(=O)O)CCCC1 | – | 1.1 nM | – | – |
| Cn1nnnc1-c1ccc(CC2(C(=O)N[C@@H](Cc3ccc(NC(=O)c4c(Cl)cccc4Cl)cc3)C(=O)O)CCCC2)cc1 | 19 nM | – | – | – |

From ChEMBL document CHEMBL1135311, “N-Cycloalkanoyl-L-phenylalanine derivatives as VCAM/VLA-4 antagonists” (Bioorg Med Chem Lett, 2002)
